Results reported in PubChem BioAssay (NCI).
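Five compound concentrations were applied to cells in 96-well plates for 48 hours; endpoints were derived by simple linear interpolation of the resulting dose-response curve. Abbreviation: GI50, concentration required for 50% inhibition of growth. Definition used: TGI = concentration required for complete inhibition of growth.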

Tests used:
Experiment in all cases: DTP human tumour cell line panel, 48 h
[1] = test system: UACC-257 melanoma
[2] = test system: MCF7 breast
[3] = test system: A498 renal
[4] = test system: K-562 leukemia
[5] = test system: MOLT-4 leukemia
[6] = test system: OVCAR-4 ovarian
[7] = test system: HCT-15 colon
[8] = test system: KM12 colon
[9] = test system: PC-3 prostate
[10] = test system: RXF 393 renal
[11] = test system: OVCAR-8 ovarian
[12] = test system: HCC-2998 colon
[13] = test system: SR leukemia
[14] = test system: IGROV1 ovarian
[15] = test system: NCI/ADR-RES ovarian
[16] = test system: UO-31 renal
[17] = test system: TK-10 renal
[18] = test system: U251 CNS
[19] = test system: EKVX NSCLC
[20] = test system: HS 578T breast
[21] = test system: SK-MEL-5 melanoma
[22] = test system: OVCAR-3 ovarian
[23] = test system: NCI-H226 lung
[24] = test system: MALME-3M melanoma
[25] = test system: NCI-H522 lung
[26] = test system: DU-145 prostate
[27] = test system: A549 NSCLC
[28] = test system: SF-539 CNS
[29] = test system: SN12C renal
[30] = test system: OVCAR-5 ovarian
[31] = test system: 786-0 renal
[32] = test system: T-47D breast
[33] = test system: MDA-MB-435
[34] = test system: LOX IMVI melanoma
[35] = test system: HOP-62 NSCLC
[36] = test system: HCT-116 colon
[37] = test system: HL-60(TB) leukemia
[38] = test system: NCI-H23 lung
[39] = test system: SK-MEL-2 melanoma
[40] = test system: CAKI-1 renal
[41] = test system: CCRF-CEM leukemia
[42] = test system: SK-MEL-28 melanoma
[43] = test system: MDA-MB-231 breast
[44] = test system: MDA-MB-468 breast
[45] = test system: COLO 205 colon
[46] = test system: SF-268 CNS
[47] = test system: SK-OV-3 ovarian
[48] = test system: SNB-19 CNS
[49] = test system: BT-549 breast
[50] = test system: SF-295 CNS
[51] = test system: HOP-92 NSCLC
[52] = test system: M14 melanoma
[53] = test system: RPMI-8226 leukemia
[54] = test system: UACC-62 melanoma
[55] = test system: SW-620 colon
[56] = test system: ACHN renal
[57] = test system: NCI-H460 lung
[58] = test system: HT29 colon

## COc1cccc(/C=C/C(=O)c2ccc(OC)c(S(N)(=O)=O)c2)c1
[1]
  GI50: 10.2 µM
  TGI: 22.5 µM
[2]
  GI50: 2.87 µM
  TGI: 12.5 µM
[3]
  GI50: 14.3 µM
  TGI: 28 µM
[4]
  GI50: 2.12 µM
  TGI: 6.4 µM
[5]
  GI50: 2.12 µM
  TGI: 5.16 µM
[6]
  GI50: 4.87 µM
  TGI: 20.1 µM
[7]
  GI50: 1.27 µM
  TGI: 3.34 µM
[8]
  GI50: 2.12 µM
  TGI: 5.11 µM
[9]
  GI50: 5.25 µM
  TGI: 18.4 µM
[10]
  GI50: 3.39 µM
  TGI: 15.1 µM
[11]
  GI50: 2.96 µM
  TGI: 12 µM
[12]
  GI50: 2.88 µM
  TGI: 12.1 µM
[13]
  GI50: 1.26 µM
  TGI: 4.09 µM
[14]
  GI50: 2.98 µM
  TGI: 12.5 µM
[15]
  GI50: 2.83 µM
  TGI: 9.24 µM
[16]
  GI50: 2.03 µM
  TGI: 9.93 µM
[17]
  GI50: 2.81 µM
  TGI: 13.1 µM
[18]
  GI50: 2.5 µM
  TGI: 9.83 µM
[19]
  GI50: 8.05 µM
  TGI: 20.9 µM
[20]
  GI50: 15.5 µM
  TGI: 50.6 µM
[21]
  GI50: 5.23 µM
  TGI: 18 µM
[22]
  GI50: 2.9 µM
  TGI: 10.8 µM
[23]
  GI50: 2.72 µM
  TGI: 11.1 µM
[24]
  GI50: 12.4 µM
  TGI: 25.1 µM
[25]
  GI50: 2.48 µM
  TGI: 8.39 µM
[26]
  GI50: 5.73 µM
  TGI: 18.1 µM
[27]
  GI50: 2.64 µM
  TGI: 11.5 µM
[28]
  GI50: 1.96 µM
  TGI: 4.56 µM
[29]
  GI50: 2.74 µM
  TGI: 10.9 µM
[30]
  GI50: 2.61 µM
  TGI: 10.8 µM
[31]
  GI50: 2.9 µM
  TGI: 11 µM
[32]
  GI50: 2.97 µM
  TGI: 14.2 µM
[33]
  GI50: 4.66 µM
  TGI: 16.5 µM
[34]
  GI50: 1.64 µM
  TGI: 3.47 µM
[35]
  GI50: 2.7 µM
  TGI: 10.2 µM
[36]
  GI50: 1.59 µM
  TGI: 3.31 µM
[37]
  GI50: 1.88 µM
  TGI: 5.18 µM
[38]
  GI50: 4.66 µM
  TGI: 16.9 µM
[39]
  GI50: 14 µM
  TGI: 27.3 µM
[40]
  GI50: 4.16 µM
  TGI: 16.1 µM
[41]
  GI50: 2.51 µM
  TGI: 6.23 µM
[42]
  GI50: 9.04 µM
  TGI: 21.1 µM
[43]
  GI50: 3.8 µM
  TGI: 13.6 µM
[44]
  GI50: 1.99 µM
  TGI: 7.17 µM
[45]
  GI50: 2.93 µM
  TGI: 11 µM
[46]
  GI50: 4.85 µM
  TGI: 18.9 µM
[47]
  GI50: 10.1 µM
  TGI: 21.9 µM
[48]
  GI50: 4.82 µM
  TGI: 17.2 µM
[49]
  GI50: 2.52 µM
  TGI: 8.85 µM
[50]
  GI50: 2.9 µM
  TGI: 12.6 µM
[51]
  GI50: 6.37 µM
  TGI: 20.2 µM
[52]
  GI50: 4.42 µM
  TGI: 17.7 µM
[53]
  GI50: 2.54 µM
  TGI: 7.24 µM
[54]
  GI50: 4.16 µM
  TGI: 16.9 µM
[55]
  GI50: 3.16 µM
  TGI: 12 µM
[56]
  GI50: 1.85 µM
  TGI: 3.7 µM
[57]
  GI50: 3.45 µM
  TGI: 13.8 µM
[58]
  GI50: 1.91 µM
  TGI: 4.05 µM
